Results from publication PMC5412877, “Discovery of a PCAF Bromodomain Chemical Probe” (Angewandte Chemie (International Ed. in English), 2016).
Entries after “also recorded” stand apart in the source; their conditions may differ. Read-outs that look alike come from different tables or passages of the source.

What was measured:
[1] = Metabolic stability in mouse liver microsomes; type: in vitro ADME
Protocol: (§1) In vitro Metabolism Studies
(§2) Metabolic stability studies were carried out exposing nominated compounds to samples of liver microsomes. Compounds were analysed by LC-MS for loss of compound at 0, 5, 15, 30 and 45 minute time points. The rate of metabolic degradation of compounds was used to calculate CLint, SE CLint, t1/2 (summarised in supplemental table 2.)
(§3) Supplemental Table 4. In vitro metabolic stability of compounds DL-45/DL-Moses and 39 Compound Metbolic Stability (Human) Metbolic Stability (Mouse) […]

[2] = Metabolic stability in human liver microsomes; type: in vitro ADME
Protocol: as §1, §2, §3

[3] = target: T1, PCAF Brd (Homo sapiens, UniProt Q92831); assay: Differential scanning fluorimetry (DSF), PCAF Brd; type: binding; conditions: for ΔT m [°C] PCAF (DSF): compound concentration 10 μM
T1 construct: Human bromodomains were cloned, expressed and purified as previously described; made in house
T1 sequence (Q92831 723-827 limits assumed): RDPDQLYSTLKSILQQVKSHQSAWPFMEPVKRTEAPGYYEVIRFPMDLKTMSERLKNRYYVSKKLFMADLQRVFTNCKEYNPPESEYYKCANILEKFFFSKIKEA
Protocol: (§4) Protein Expression and Purification
(§5) Human bromodomains were cloned, expressed and purified as previously described.[1]
(§6) Differential Scanning Fluorimetry (DSF)
(§7) Thermal melting points were recorded using an Mx3005p Real Time PCR Machine (Stratagene).
(§8) Subject proteins were buffered in 10 mM HEPES at pH 7.5, 500 mM NaCl and assayed in a 96-well […]
(§9) plate at a final concentration of 2 μM in 20 μL volume. Compounds were then added to a final […]
(§10) concentration of 10 μM. SPYRO Orange (Molecular Probes) was used as a fluorescent probe at a […]
(§11) dilution of 1:1000. Excitation and emission filters for the SPYRO-Orange dye were set to 465 nm and […]
(§12) 590 nm, respectively. The temperature was raised with a step of 3 °C/min from 25 °C to 96 °C and […]
(§13) fluorescence readings were taken at each interval. Data was analysed as previously described.[2]
(§14) Bromodomain affinity selectivity panel of (S)-11
(§15) Supplemental Figure 1. DSF Selectivity panel of (S)-11 against 48 human Bromodomains. […]
(§16) ┼Mean ΔTm ± SEM (number of measurements= 2). Compound concentration: 10 μM […]
(§17) (1 picture or pasted object on this page, not shown here)

[4] = target: T1, PCAF Brd; assay: Isothermal titration calorimetry (ITC), PCAF Brd; type: binding
Protocol: Isothermal Titration Calorimetry (ITC)
Experiments were carried out on a Nano-ITC Standard Volume Instrument (TA Instruments). All experiments were carried out at 25 °C in 20 mM HEPES pH 7.5, 150 mM NaCl, 0.5 mM TCEP and 5% glycerol. Protein solutions were buffer exchanged by gel filtration. The titrations were conducted using an initial injection of 2 μL followed by 32 injections of 8 μL. Background dilution heat was substracted from each experiment. Thermodynamic parameters were calculated using ΔG = ΔH-T ΔS = -RTlnKB , where KD = 1/KB. ΔG, ΔH and ΔS are changes in free energy, enathalpy and entropy resepectively. Independent single site binding models were employed in data analysis.
Supplemental Figure 3. ITC trace of D-Moses and PCAF Brd […]

[5] = target: T2, GCN5L2 (Homo sapiens, UniProt Q92830); assay: Differential scanning fluorimetry (DSF), GCN5 (GCN5L2) Brd; type: binding; conditions: compound 10 μM
T2 construct: made in house
T2 sequence (Q92830 728-832 limits assumed): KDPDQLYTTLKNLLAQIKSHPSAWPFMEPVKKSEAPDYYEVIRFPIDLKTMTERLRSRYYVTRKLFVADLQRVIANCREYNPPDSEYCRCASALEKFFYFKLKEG
Protocol: as §4, §5, §6, §7, §8, §9, §10, §11, §12, §13, §14, §15, §16, §17

[6] = system: 48 human Brds; assay: DSF selectivity panel of 48 human bromodomains; type: binding; conditions: compound 10 μM
[7] = system: HIV‐1; conditions: ref 8c; read-out: HIV-1 EC50 (disrupting HIV‐1 replication); cited from earlier work
[8] = target: T3, PCAF‐Brd histone H3.3 interaction (Homo sapiens, UniProt Q92831); assay: nanoBRET target engagement assay, PCAF-Brd / histone H3.3 in HEK293 cells; type: cell-based; conditions: live HEK293 cells; compounds 5 μM, 18 h
T3 construct: NanoLuciferase fusion of the isolated bromodomain of PCAF; expressed in transfected cells; host or cells: HEK293
T3 sequence (Q92831 723-827 limits assumed): T1 sequence (Q92831 723-827 limits assumed)
Protocol: page 48: NanoLuciferase Bioluminescent Resonance Energy Transfer (NanoBRET) Assay Methods HEK293 cell (8 x 105) were plated in each well of a 6-well plate and co-transfected with Histone H3.3- HaloTag (NM_002107) and a NanoLuciferase fusion of the isolated bromodomain of PCAF. Twenty hours post-transfection, cells were collected, washed with PBS, and exchanged into media containing phenol red-free DMEM and 4% FBS in the absence (control sample) or the presence (experimental sample) of 100 nM NanoBRET 618 fluorescent ligand (Promega). Cell density was adjusted to 2 x 10^5 cells/ml and then re-plated in a 96-well assay white plate (Corning Costar #3917). […] Readings were performed within 5 minutes using a Glo-MAX Discover instrument (Promega) equipped with 450/8 nm bandpass and 600 nm longpass filters with a 0.3 sec reading setting. A corrected BRET ratio was calculated and is defined as the ratio of the emission at 600 nm/450 nm for experimental samples (i.e. those treated with NanoBRET fluorescent ligand) subtracted by and the emission at 600 nm/450 nm for control samples (not treated with NanoBRET fluorescent ligand). BRET ratios are expressed as milliBRET units (mBU), where 1 mBU corresponds to the corrected BRET ratio multiplied by 1000. […] Compounds were analysed by LC-MS for loss of compound at 0, 5, 15, 30 and 45 minute time points. […]

[9] = target: T4, GST-PCAFBRD (Homo sapiens, UniProt Q92831); assay: HTRF assay, displacement of biotinylated compound 46 from GST-PCAF Brd; type: binding; conditions: GST-PCAF Brd; read-out: KD of compound 46 used for Cheng-Prusoff
T4 construct: Final assay concentrations: GST-PCAFBRD (20 nM)
T4 sequence (Q92831 723-827 limits assumed): T1 sequence (Q92831 723-827 limits assumed)
Protocol: obtained from 5 healthy donors. PBMC were cultured either with D-Moses or L-Moses at concentrations of 0.1, 1 and 10 μM or with a control (DMSO) for 24 hours. Viability of PBMC were then checked using LIVE/DEAD Fixable Aqua Dead Cell Stain Kit (ThermoFisher Scientific).
High Throughput Time Resolved Fluorescence Assay (HTRF)
HTRF assay was carried out using a Cisbio Epigenous kit B (62BDBPEH) using the standard assay protocol with GST-PCAFBRD.[3] Final assay concentrations: GST-PCAFBRD (20 nM), SA-XL665 (62.5 nM), α-GST donor (62.5 nM), compound 46 (500 nM). Ki was calculated using the Cheng-Prussof equation […]
Recombinant PfGCN5 (bromodomain only) was expressed in E. coli and purified using a previously described system. The protein crystallized with the compound L-45 at 293 K in 0.1M CaCl2, 30% PEG 8k, 0.2 M NH4SO4. The concentrations of the protein sample and the compound were 10 mg/ml […]
X-ray diffraction data for the crystal was collected at 100 K at the beamline 08ID-1 of the Canadian Macromolecular Crystallography Facility. The dataset was processed using the HKL-2000 suite, and the structure solved using Phaser, a component of the CCP4 suite with molecular replacement model 4QNS. […]

[10] = read-out: GCN5L2 ΔTm (°C) (DSF)
[11] = Supplemental Table 3, compound concentration 30 μM, protein concentration 280-320 μM, read-out: PCAF KD (μM) (ITC)
[12] = Table 1, read-out: K D [μM] (ITC) PCAF Brd

| SMILES | ΔT m [°C] PCAF (DSF) [3] [°C] | ΔTm at 10 µM [5, 10] [°C] | Kd [4, 11] [nM] | GCN5L2 ΔTm (°C) (DSF) [5] | further results |
| --- | --- | --- | --- | --- | --- |
| Cc1nnc2c3ccccc3c(N[C@@H](C)[C@H](c3ccc(F)cc3)N(C)C)nn12 (relative stereo) [Compound 39] | 8.3 | 4.4 |  |  | microsomal CLint ([1]; mouse liver microsomes, n 5, read-out: CLint (μL/min/mg protein) mouse): 21 µL/min/mg; half-life ([1]; mouse, liver microsomes, read-out: t1/2 mouse liver microsomes): 65 min; microsomal CLint ([2]; human liver microsomes, n 5, read-out: CLint (μL/min/mg protein) human): 29 µL/min/mg; half-life ([2]; human, liver microsomes, read-out: t1/2 human liver microsomes): 48 min; Kd ([4]; Table 2, read-out: K D (nM) (ITC) PCAF Brd): 195 ± 23 nM |
| Cc1nnc2c3ccccc3c(N[C@@H](C)CN(C)C)nn12 [(S)‐11] | 7.4 | 4 | 284 |  | selectivity in DSF panel of 48 human Brds [6]: no observable activity against other Brds; ΔTm at 10 µM ([3]; Supplemental Table 1, number of measurements 2, compound 10 μM, read-out: PCAF ΔTm (°C), mean ± SEM): 5.4 °C; Kd [4, 12]: 280 ± 29 nM; ΔTm at 10 µM ([5]; Supplemental Table 1, number of measurements 2, read-out: GCN5L2 ΔTm (°C), mean ± SEM): 3.7 °C |
| Cc1ccc(NCCCN)c([N+](=O)[O-])c1 [Compound 1] |  |  |  |  | EC50 [7]: 2.8 µM |
| Cc1nnc2c3ccccc3c(N3CCN4CCCCC4C3)nn12 (centres unmarked) [Compound 73] | 0.5 |  | > 30000 | 0.2 |  |
| Cc1nnc2c3ccccc3c(N3CCCC(N(C)C)C3)nn12 (centres unmarked) [Compound 75] | 0.4 | 0.2 | > 30000 |  |  |
| Cc1nnc2c3ccccc3c(N[C@H]3CCC[C@@H]3N(C)C)nn12 [Compound 76] | 7.3 | 2.4 | 168 |  |  |
| CN(C)[C@H]1CCCC[C@@H]1Nc1nn2c(C(F)(F)F)nnc2c2ccccc12 [Compound 83] | 0.8 | 0 | > 30000 |  |  |
| CN(C)[C@H]1CCC[C@@H]1Nc1nn2c(C(F)(F)F)nnc2c2ccccc12 [Compound 84] | 0.7 | 0.2 | > 30000 |  |  |
| FC(F)(F)c1nnc2c3ccccc3c(NCc3ccccc3)nn12 [Compound 85] | 3.7 | 0.9 | > 30000 |  |  |
| CC(C)CC(CN(C)C)Nc1nn2c(C(F)(F)F)nnc2c2ccccc12 (centres unmarked) [Compound 86] | 0.02 |  | > 30000 | 0.2 |  |
| CCC(CN(C)C)Nc1nn2c(C(F)(F)F)nnc2c2ccccc12 (centres unmarked) [Compound 88] | 0.4 |  | > 30000 | 0.1 |  |
| CCC(CNc1nn2c(C(F)(F)F)nnc2c2ccccc12)N(C)C (centres unmarked) [Compound 89] | 0.4 |  | > 30000 | 0.2 |  |
| CCN(CC)CC(C)Nc1nn2c(C(F)(F)F)nnc2c2ccccc12 (centres unmarked) [Compound 90] | 0.4 |  | > 30000 | 0.1 |  |
| CCN1CCCC1CNc1nn2c(C(F)(F)F)nnc2c2ccccc12 (centres unmarked) [Compound 91] | 0.1 | 0.1 | > 30000 |  |  |
| Cc1nnc2c3ccccc3c(NCC3CCCN3C)nn12 (centres unmarked) [Compound 97] | 2.8 |  | 18200 | 0.9 |  |
| C[C@@H](CN(C)C)Nc1nn2c(C(F)(F)F)nnc2c2ccccc12 [Compound (S)‐17] | 0.65 | 0.2 |  |  | ΔT m [°C] PCAF (DSF) ([3]; listed as (S)-17): 0.7 °C; Kd [4, 12]: > 30000 nM |
| Cc1nnc2c3ccccc3c(NC(C)C(c3ccccc3)N(C)C)nn12 (centres unmarked) [D‐45] |  |  | > 30000 |  | K D (nM) (ITC) PCAF Brd ([4]; Table 2): no observable binding; also recorded: Inactive; displacement of PCAF‐Brd from H3.3 in nanoBRET assay [8]: no effect |
| Cc1nnc2c3ccccc3c(NCC(NCCCCNC(=O)CCOCCOCCOCCOCCNC(=O)CCCCC3SCC4NC(=O)NC43)c3ccccc3)nn12 (centres unmarked) [compound 46, reference compound] |  |  |  |  | Kd [9]: 0.4 µM |
